Paper PMC2138508 (The Journal of Experimental Medicine, 1968)
Ends that are not written are not given here.

Test system: renin
Assay type: biochemical, hog
Conditions: for Vmax per Goldblatt unit/ml: average over the renin concentrations used; for Km relative to the tetradecapeptide (times larger): ratio of Km values

Row | Substance | Vmax per Goldblatt unit/ml (pH 7.5, 37.5C) | other results
1 | Asp Arg Val Tyr Ileu His Pro Phe His Leu Leu Val Tyr Ser [asp^1-arg^2-val^3-tyr^4-ileu^5-his^6-pro^7-phe^8-his^9-leu^10-leu^11-val^12-tyr^13-ser^14] | 10.2 x 10-6 M/min per Goldblatt uni | 
2 | HPFHLLV |  | Average Km (mean of the Km values at the two renin concentrations, pH 7.5, 37.5C): eo; Substrate activity with renin (renin 0.183 Goldblatt units/ml, pH 7.5, 37.5C): no hydrolysis occurred
3 | HPFHLLVY [his^6-pro^7-phe^8-his^9-leu^10-leu^11-val^12-tyr^13] | 7.6 x 10-6 M/min per Goldblatt uni | Km relative to the tetradecapeptide (times larger): ~ 12 times
4 | HPFHLLVYS [his^6-pro^7-phe^8-his^9-leu^10-leu^11-val^12-tyr^13-ser^14] | 11.7 x 10-6 M/min per Goldblatt uni | Km relative to the tetradecapeptide (times larger): ~ 12 times
5 | Ileu His Pro Phe His Leu Leu Val Tyr Ser | 10.9 x 10-6 M/min per Goldblatt uni | 
6 | NRVYVHPFHLLVYS [reference compound] | 9.1 x 10-6 M/min per Goldblatt uni | 
7 | PFHLLVYS | 0.55 x 10-6 M/min per Goldblatt uni | Vm as printed in the Lineweaver-Burk plot of Fig. 4 (value of the figure where it differs from Table I): 0.6 x 10-6 M/min/Goldblatt unit
8 | Tyr Ileu His Pro Phe His Leu Leu Val Tyr Ser | 9.8 x 10-6 M/min per Goldblatt uni | 
9 | Val Tyr Ileu His Pro Phe His Leu Leu Val Tyr Ser | 8.9 x 10-6 M/min per Goldblatt uni | Vmax (renin concentration 0.0195 Goldblatt units/ml (so in the source), pH 7.5, 37.5C): 9.1e-07 M/min
